# According to patent publication US9012422B2, “Method of treating acute myelogenous leukemia” (Wake Forest University Health Sciences, priority 2011, dated 2015):
# Like-named read-outs stand apart in the source and are kept apart here.
# Legend:
# HL60 cells = assay: Cell Titer-Glo viability (cytotoxicity) assay, HL60; assay type: cell-based, human; conditions: 72 hours exposure
# Excerpt: (§1) We chose to use doxorubicin as the anthracycline as it is the best tolerated anthracycline in C57/Bl6 mice^11 and would allow for comparisons between in vivo and in vitro studies.
# Jurkat cells = assay: Cell Titer-Glo viability (cytotoxicity) assay, Jurkat; assay type: cell-based, human; conditions: 72 hours exposure
# Excerpt: as §1
# THP-1 cells = assay: Cell Titer-Glo viability (cytotoxicity) assay, THP-1; assay type: cell-based, human; conditions: 72 hours exposure
# Excerpt: as §1
# K562 cells [1] = assay: Cell Titer-Glo viability (cytotoxicity) assay, K562; assay type: cell-based, human; conditions: 72 hours exposure
# Excerpt: as §1
# KG1a cells = assay: Cell Titer-Glo viability (cytotoxicity) assay, KG1a; assay type: cell-based, human; conditions: 72 hours exposure
# Excerpt: as §1
# OCI-AML3 cells = assay: Cell Titer-Glo viability (cytotoxicity) assay, OCI-AML3; assay type: cell-based, human; conditions: 72 hours exposure
# Excerpt: as §1
# murine AML cell lines = conditions: 24 hours
# Experimental: FIG. 11. […] (A) Flow cytometry results of Annexin V assays. The indicated MLL-ENL driven leukemia cells were treated with drug for 24 hours analyzed by flow cytometry, as in FIG. 5. (B) MLL-ENL and neuroblastoma RAS viral oncogene homolog (NRAS) containing AML cells were exposed to the indicated drug for 24 hours and analyzed as in (A).
# [2] = system: MR2 cell line (MLL-ENL and NRasG12D) leukemia in C57/Bl6 mice
# Excerpt: FIG. 12. […] C57/Bl6 mice were sublethally irradiated to 4.5 Gy and injected with an MLL-ENL and NRAS syngeneic leukemia. […] P value was obtained by log rank test. […] P value was obtained by log rank test.
# (§2) The Wake Forest University Institutional Animal Care and Use Committee approved all mouse experiments. Luciferase-tagged leukemia cells were transplanted into 6- to 8-wk-old sublethally irradiated recipient mice (4.5 Gy) by tail-vein injection of 1×10^6 viable cells. Mice were monitored by bioluminescent imaging on day 7. Imaging was performed using an IVIS100 imaging system (Caliper LifeSciences, Hopkinton, Mass.). Mice were injected with 150 mg/kg D-Luciferin (Gold Biotechnology, St. Louis, Mo.), anesthetized with isoflurane, and imaged for 2 min. Chemotherapy was initiated upon detection of clear signals. […] Control animals were injected with PBS. Repeat luciferase imaging was performed on day 6 of treatment.
# (§3) Recent studies have shown that the bone marrow microenvironment can have a profound effect on chemotherapy response in AML^24. Additionally, the immune system can affect the degree of response to a given therapy in vivo^25. […] This cell line express MLL-ENL and the mutated oncogene, NRas^G12D in conjunction with a luciferase reporter. […] This cell line expresses the FLT3 receptor with an internal tandem duplication (FLT3 ITD) in place of NRas^G12D. […] (300 mg/kg), 5-FU (121 mg/kg) or Ara-C (125 mg/kg) plus doxorubicin (3.75 mg/kg) on days 1, 3, 5, and 7 (FIG. 1A).
# [3] = system: MFL2 cell line (MLL-ENL and FLT3 ITD) leukemia in C57/Bl6 mice; conditions: for survival compared to controls: 5-FU 121 mg/kg
# Excerpt: FIG. 6. […] A) Schema of treatment trial. C57/Bl6 mice were sublethally irradiated to 4.5 Gy and injected with an MLL-ENL and Fms-like tyrosine kinase 3 internal tandem duplication (FLT3-ITD) syngeneic leukemia. […] (B) Bioluminescent image of mice on day 6 following treatment. (C) Kaplan-Meier curves for animals treated with Fd, 5-FU or AD as above.
# as §2, §3
# [4] = system: MFL2 cells (MLL-ENL + Flt3 ITD); conditions: read-out: IC50 MFL2
# Experimental: (§8) Cells were grown at 37° C. with 5% CO2. Viability assays were done using the Cell Titer-Glo assay (Promega, Madison, Wis.) according to the manufacturer's protocol. All murine cells were derived from fetal liver cells infected with MLL-ENL alone or with a mutation of glycine at amino acid 12 to aspartate of NRAS (NRAS^G12D) or FLT3-ITD expressing vectors^10. Murine cells were maintained in stem cell media (40% DMEM, 40% IMDM, 20% FBS, supplemented with murine SCF to 10 ng/ml, murine IL6 to 2 ng/ml, and murine IL3 to 0.4 ng/ml).
# [5] = system: MR2 cells (MLL-ENL + NRasG12D); conditions: read-out: IC50 MR2
# Experimental: as §8
# M1 cells (MLL-ENL alone) [6] = conditions: read-out: IC50 M1
# Experimental: as §8
# [7] = system: murine AML cells expressing the p53 shRNA; conditions: 48 hours
# Experimental: (B) Flow cytometry of Annexin V assay. Cells expressing the p53 short hairpin RNA (shRNA) were exposed to the indicated drug for 48 hours and then labeled with Annexin V and propidium iodide (PI).
# (§9) Cells were seeded in 6-well plates at 25,000 cells/ml in 3 mls, grown for 2 days and treated with the indicated drug for 16, 24, 36, or 48 hours. After centrifugation and washing in cold PBS cells were stained with PI (Sigma Aldrich, St. Louis, Mo.) and APC-conjugated Annexin V in a binding buffer (0.1 M Hepes (pH 7.4), 1.4 M NaCl, and 25 mM CaCl2 solution) (BD Pharmingen, San Jose, Calif.) according to the manufacturer's protocol. Flow cytometric analysis was conducted on a BD FACS Cantoll cytometer with the BD FACSDiva software (BD Biosciences, San Jose, Calif.).
# [8] = system: human LSCs (K562 and HL60 cells, three primary patient samples); conditions: 24 hours drug, colonies read on or after day 7
# Experimental: (A) Colony formation assays. Primary patient samples or cell lines were incubated with the indicated drug for 24 hours and placed in methylcellulose media. Plates were read on or after day 7. All concentrations were done in triplicate. Primary AML is the combined results of three independent primary patient samples. Colony numbers are normalized to controls and error bars represent the standard error.
# [9] = system: MLL-ENL driven murine AML cells
# Experimental: FIG. 4. […] (A) EdU incorporation assays. MLL-ENL driven murine AML cells were incubated with the indicated drug for 8 hours and subjected to a 5-ethynl-2′ deoxyuridine (EdU) incorporation assay. S phase cells were gated as shown. Percentages shown are for cells in S phase. (B) EdU incorporation assay as in (A). Cells were infected with either a p53 targeting shRNA or a control vector and exposed to the indicated drug for 8 hours.
# K562 cells [10] = conditions: 24 hours
# Experimental: (A) Immuno-fluorescence for gamma histone H2AX (γH2AX) foci. K562 cells were treated with the indicated drug for 24 hours and then assayed for the presence of γH2AX foci. Secondary antibody was conjugated with Alexa Fluor 594 and Images were captured with an Olympus IX70 inverted fluorescent microscope equipped with a Retiga 2000R digital color camera and using an LPIanFI 20×/0.40 objective. Images were analyzed with Image Pro Plus 5.1 software.
# For immunofluorescence studies of phosphorylated γH2AX, cells were fixed with 4% NBF, permeabilized with PBS containing 0.2% Triton-X 100, and probed with anti-phosphoH2AX (#2577, 1:100; Cell Signalling Technologies) followed by donkey anti-rabbit Alexa Fluor 594 conjugated antibody (1:500, A-21207; Invitrogen) and visualized via fluorescence microscopy.
# THP-1 and HL60 cells = conditions: 48 hours
# Experimental: (B) Flow cytometry of Annexin V assay. THP-1 or HL60 cells were treated with the indicated drug for 48 hours and then labeled with Annexin V and propidium iodide (PI) and analyzed by flow cytometry.
# as §9
# [11] = biological target: topoisomerase I cleavage complexes (Top1CC) in THP-1, Jurkat and HL60 cells (Homo sapiens, UniProt P11387); assay: ICE bioassay / Top1 cleavage complex detection; conditions: 100 nM, 24 or 48 hours
# Chain of topoisomerase I cleavage complexes (Top1CC) in THP-1, Jurkat and HL60 cells (P11387 2-765 limits assumed, one chain of several): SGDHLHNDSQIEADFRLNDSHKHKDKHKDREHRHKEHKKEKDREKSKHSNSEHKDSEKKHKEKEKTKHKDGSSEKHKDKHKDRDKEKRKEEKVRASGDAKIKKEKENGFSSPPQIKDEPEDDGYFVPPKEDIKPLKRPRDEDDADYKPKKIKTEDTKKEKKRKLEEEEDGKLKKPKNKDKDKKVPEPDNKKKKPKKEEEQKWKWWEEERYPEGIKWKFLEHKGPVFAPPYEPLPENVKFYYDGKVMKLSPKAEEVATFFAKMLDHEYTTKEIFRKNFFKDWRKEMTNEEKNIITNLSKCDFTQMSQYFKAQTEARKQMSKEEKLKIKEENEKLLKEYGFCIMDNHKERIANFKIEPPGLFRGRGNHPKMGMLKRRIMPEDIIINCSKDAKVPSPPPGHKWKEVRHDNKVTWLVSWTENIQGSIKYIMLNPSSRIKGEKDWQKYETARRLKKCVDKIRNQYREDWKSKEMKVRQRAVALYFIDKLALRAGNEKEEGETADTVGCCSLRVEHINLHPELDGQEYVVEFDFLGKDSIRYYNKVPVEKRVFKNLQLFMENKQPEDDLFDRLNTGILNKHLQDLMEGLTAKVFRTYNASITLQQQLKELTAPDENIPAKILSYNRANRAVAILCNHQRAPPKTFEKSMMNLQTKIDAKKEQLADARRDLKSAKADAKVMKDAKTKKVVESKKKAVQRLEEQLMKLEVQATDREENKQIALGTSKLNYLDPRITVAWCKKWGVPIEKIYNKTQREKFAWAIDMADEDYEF
# Experimental: (B) ICE bioassay for Top1 cleavage complexes. […] Cells were lysed and subjected to ICE bioassay (see methods), and DNA-containing fractions were blotted for Topo I. (C) Results of TS and Top1 Western blots.
# Cells were plated at 1.5×10^6 cells in 100 mm^2 plates and grown in RPMI 1640 medium with 20% FBS. […] Cells were lysed in 2 ml of 1% sarkosyl in 1×TE pH 7.5 and frozen at −20° C. Samples were homogenized approximately 25 times. Addition of 1 ml of sarkosyl was used to wash the homogenizer. CsCl gradients were made as in^9. The samples were overlaid and ultracentrifuged in a SW41T rotor. Centrifugation was at 36K for 20-22 hours at 20° C. 500 ml fractions were collected. Fractions 6 through 11 were used for analysis. 200 ul of each fraction and an equal volume of 25 mM NaPO4 buffer (pH 6.5) were loaded onto a nitrocellulose membrane using a Schleicher and Schuell Minifold II slot blotter. The membrane was blocked with 5% milk in TBST. Primary antibody was added at 1:500 dilution, overnight at 4° C. Secondary antibody was used in the same manner. ECL Lightning Plus (Perkin Elmer) was used for detection of the TOP1 cleavage complex.
# [12] = system: MLL-ENL- and FLT3 ITD-expressing cell line with p53-targeting shRNA; assay: Cytotoxicity assay of murine AML cells with p53 knockdown; conditions: p53 shRNA vs control vector, 72 hours
# Experimental: (A) Cytotoxicity assays of murine AML cells that knockdown p53. Cells were exposed to the indicated drugs for 72 hours and then assessed for viability. Viability is shown as percentage of control; error bars represent the standard error.
# Viability assays were done using the Cell Titer-Glo assay (Promega, Madison, Wis.) according to the manufacturer's protocol. All murine cells were derived from fetal liver cells infected with MLL-ENL alone or with a mutation of glycine at amino acid 12 to aspartate of NRAS (NRAS^G12D) or FLT3-ITD expressing vectors^10. Murine cells were maintained in stem cell media (40% DMEM, 40% IMDM, 20% FBS, supplemented with murine SCF to 10 ng/ml, murine IL6 to 2 ng/ml, and murine IL3 to 0.4 ng/ml).
# [13] = system: murine AML cells expressing p210 BCR-ABL; assay: Cytotoxicity assay of murine AML cells expressing p210 BCR-ABL; assay type: cell-based; conditions: 72 hours
# Excerpt: (§4) FIG. 1. […] (B) Flow cytometry of Annexin V assay.
# (§5) In addition to p53 loss, several other adverse prognostic factors are expressed in the cell lines tested. K562 cells express the fusion gene BCR-ABL that has been implicated in chemotherapy resistance^17 and prognosis in AML^18. THP-1 cells express high levels of MN1^18, shown to confer an adverse prognosis^20-21.
# [14] = system: murine AML cells expressing human MN1; assay: Cytotoxicity assay of murine AML cells expressing MN1; assay type: cell-based; conditions: 72 hours
# Excerpt: as §4, §5
# [15] = system: MFL2 cells (MLL-ENL + Flt3 ITD); assay: cells; conditions: Mus musculus, read-out: IC50 MFL2
# Experimental: as §8
# [16] = system: MR2 cells (MLL-ENL + NRasG12D); assay: cells; conditions: Mus musculus, read-out: IC50 MR2
# Experimental: as §8
# M1 cells (MLL-ENL alone) [17] = assay: cells; conditions: Mus musculus, read-out: IC50 M1
# Experimental: as §8
# thymidylate synthase = biological target: T1, thymidylate synthase (Homo sapiens, UniProt P04818); assay: TS catalytic activity in treated HL60 cells; assay type: cell-based; conditions: 100 nM 5-FU
# T1 construct: endogenous in cells; host or cells: HL60
# T1 sequence (P04818 2-313 limits assumed): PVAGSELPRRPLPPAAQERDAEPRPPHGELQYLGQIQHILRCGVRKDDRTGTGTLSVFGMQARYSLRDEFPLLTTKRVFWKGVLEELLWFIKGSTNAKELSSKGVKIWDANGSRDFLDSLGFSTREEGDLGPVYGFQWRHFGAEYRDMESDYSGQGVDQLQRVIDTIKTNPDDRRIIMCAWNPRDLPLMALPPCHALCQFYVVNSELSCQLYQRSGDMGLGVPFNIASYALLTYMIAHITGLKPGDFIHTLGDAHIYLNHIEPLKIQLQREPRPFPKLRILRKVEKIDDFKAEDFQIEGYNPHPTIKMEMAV
# normal C57/Bl6 mice = assay: Toxicology study, histopathology; assay type: in vivo, mouse; conditions: dosed days 1, 3, 5, 7; sacrificed three days after last treatment
# Experimental: (§6) FIG. 7. […] Mice were treated in the same manner as the in FIG. 6; sacrificed 72 hours after the last dose; and organs were harvested, fixed, paraffin-embedded, sectioned, and stained. Slides were imaged using a Nikon Eclipse 50i light microscope, magnification as indicated. Photographs of tissues were taken using the NIS Elements D3.10 camera and software system. (B) Bone marrow transplant. […] Ly5.1+C57/Bl6 recipient mice were irradiated to 8 gray and injected with donor cells. After three weeks recipients were harvested and degree of femur engraftment by donor cells was determined by staining with Ly5.2 antibody and analyzed by flow cytometry.
# (§7) Normal C57/Bl6 mice were treated with identical dose, schedule and route of each drug as in the efficacy studies (i.e. Day 1, 3, 5 and 7). 72 hours after the last dose, animals were sacrificed, bilateral femoral cells harvested and organs fixed in 10% neutral buffered formalin followed by routine tissue processing and sectioning for hematoxylin and eosin staining. Slides were then reviewed by a veterinary pathologist using a Nikon Eclipse 50i light microscope. Photographs of tissues were taken using the NIS Elements D3.10 camera and software system. […] Three weeks later recipient femoral bone marrow was harvested and stained with APC-conjugated anti-Ly5.2 antibody (BD Pharmingen, San Diego, Calif.) and analyzed by flow cytometry. […]
# normal murine HSCs = conditions: mouse, in vivo
# Experimental: as §6, §7
# [18] = days 1, 3, 5 and 7, FdUMP[10] 300 mg/kg
compound,measurement,setting,value
10-mer oligonucleotide of 5-fluorodeoxyuridine [FdUMP[10]],IC50,HL60 cells,3.4 nM
same,IC50,Jurkat cells,5.4 nM
same,IC50,THP-1 cells,4.1 nM
same,IC50,K562 cells [1],21.5 nM
same,IC50,KG1a cells,4.9 nM
same,IC50,OCI-AML3 cells,5.5 nM
same,apoptosis induction in murine AML cell lines,murine AML cell lines,efficiently induced apoptosis
same,survival,[2]; 300 mg/kg every other day for four doses,significant survival benefit
same,disease burden (bioluminescence),[2]; 300 mg/kg on days 1 and 4,reduction in disease burden
same,survival vs untreated controls,[2]; 300 mg/kg on days 1 and 4,statistically significant survival benefit
same,survival compared to Ara/Dox treated animals,"[3]; Ara-C 125 mg/kg plus doxorubicin 3.75 mg/kg, days 1, 3, 5, 7",no difference in survival
same,disease burden (bioluminescent imaging),[3]; [18],reduced disease burden
same,survival compared to controls,[3]; [18],improved survival
same,IC50,[4],0.131 nM
same,IC50,[5],0.124 nM
same,IC50,M1 cells (MLL-ENL alone) [6],0.124 nM
same,Annexin V binding in p53-suppressing cells,[7],positive for Annexin V binding
same,"suppression of colony formation, cell lines and primary patient samples",[8],highly effective in suppressing colony formation
same,S-phase arrest in cells expressing a p53 targeting shRNA,[9]; 8 hours exposure,efficiently arrested in S-phase
same,accumulation of cells in S-phase,[9]; eight hours exposure,cells accumulated in S-phase
same,γH2AX foci (DNA DSBs),K562 cells [10]; 10 or 100 nM,formation of multiple γH2AX foci
same,apoptosis by Annexin V and propidium iodide staining,THP-1 and HL60 cells; 10 or 100 nM,a majority of cells were stained positive
same,trapped Top1 cleavage complexes,[11],Top1 was detected co-migrating with genomic DNA
same,change in response (viability) on loss of p53 response,[12],no change observed
"COc1cccc2c1C(=O)c1c(O)c3c(c(O)c1C2=O)C[C@@](O)(C(=O)CO)C[C@@H]3O[C@H]1C[C@H](N)[C@H](O)[C@H](C)O1 [Doxorubicin, doxorubicin]",IC50,"HL60 cells; Homo sapiens, HL-60",21.7 nM
same,IC50,"Jurkat cells; Homo sapiens, Jurkat",75.2 nM
same,IC50,"THP-1 cells; Homo sapiens, THP-1",160 nM
same,IC50,"K562 cells [1]; Homo sapiens, K562",253 nM
same,IC50,"KG1a cells; Homo sapiens, KG-1a",1300 nM
same,"fold change of IC50 vs parental leukemia cells, p210 BCR-ABL",[13],2.95 fold
same,"fold change of IC50 vs parental leukemia cells, MN1",[14],> 10 fold
same,IC50,[15],24.6 nM
same,IC50,[16],11.4 nM
same,IC50,M1 cells (MLL-ENL alone) [17],3.7 nM
same,change in response (viability) on loss of p53 response,[12],resistance
"Nc1ccn([C@@H]2O[C@H](CO)[C@@H](O)[C@@H]2O)c(=O)n1 [Cytarabine, cytarabine]",IC50,"HL60 cells; Homo sapiens, HL-60",145 nM
same,IC50,"Jurkat cells; Homo sapiens, Jurkat",15.5 nM
same,IC50,"THP-1 cells; Homo sapiens, THP-1",6700 nM
same,IC50,"K562 cells [1]; Homo sapiens, K562",83.7 nM
same,IC50,"KG1a cells; Homo sapiens, KG-1a",196 nM
same,IC50,"OCI-AML3 cells; Homo sapiens, OCI-AML-3",134 nM
same,IC50,[15],54.4 nM
same,IC50,[16],71.8 nM
same,IC50,M1 cells (MLL-ENL alone) [17],46.8 nM
"O=c1[nH]cc(F)c(=O)[nH]1 [5-FU, 5-fluorouracil]",IC50,"HL60 cells; Homo sapiens, HL-60",5000 nM
same,IC50,"Jurkat cells; Homo sapiens, Jurkat",7500 nM
same,IC50,"THP-1 cells; Homo sapiens, THP-1",1200 nM
same,IC50,"K562 cells [1]; Homo sapiens, K562",7000 nM
same,IC50,"KG1a cells; Homo sapiens, KG-1a",5300 nM
same,TS inhibition,thymidylate synthase,did not significantly inhibit TS
same,deaths on treatment,"[3]; 5-FU 121 mg/kg days 1, 3, 5, 7",early deaths
same,survival compared to controls,[3]; [18],no survival benefit over controls
same,GI-tract histopathology (small and large intestine),normal C57/Bl6 mice,severe villous blunting and fusion with crypt necrosis
same,bone marrow histopathology,normal C57/Bl6 mice,severe pancytopenia
same,engraftment of femur cells from treated donors in irradiated recipients,normal murine HSCs,only minimal engraftment
same,accumulation of cells in S-phase,"[9]; eight hours, 5-FU at 100 times the FdUMP[10] concentration",essentially no difference in the number of cells in S-phase from control
same,γH2AX foci (DNA DSBs),K562 cells [10]; 1 μM,did not result in the formation of γH2AX foci
same,apoptosis by Annexin V staining,THP-1 and HL60 cells; 100 nM 5-FU,only minimal annexin V positive cells
same,IC50,[15],292 nM
same,IC50,[16],214 nM
